Test results as given in article PMC10795023, “Structural Optimization and Biological Evaluation of Isoxazolo[5,4-d]pyrimidines as Selective Toll-Like Receptor 7 Agonists” (ACS Omega, 2024).
Where two headings read alike, the source gives them in different places.

Molecular target: T1, hTLR7 (Homo sapiens, UniProt Q9NYK1)
T1 construct: host or cells: HEK293
T1 sequence (Q9NYK1 27-1049): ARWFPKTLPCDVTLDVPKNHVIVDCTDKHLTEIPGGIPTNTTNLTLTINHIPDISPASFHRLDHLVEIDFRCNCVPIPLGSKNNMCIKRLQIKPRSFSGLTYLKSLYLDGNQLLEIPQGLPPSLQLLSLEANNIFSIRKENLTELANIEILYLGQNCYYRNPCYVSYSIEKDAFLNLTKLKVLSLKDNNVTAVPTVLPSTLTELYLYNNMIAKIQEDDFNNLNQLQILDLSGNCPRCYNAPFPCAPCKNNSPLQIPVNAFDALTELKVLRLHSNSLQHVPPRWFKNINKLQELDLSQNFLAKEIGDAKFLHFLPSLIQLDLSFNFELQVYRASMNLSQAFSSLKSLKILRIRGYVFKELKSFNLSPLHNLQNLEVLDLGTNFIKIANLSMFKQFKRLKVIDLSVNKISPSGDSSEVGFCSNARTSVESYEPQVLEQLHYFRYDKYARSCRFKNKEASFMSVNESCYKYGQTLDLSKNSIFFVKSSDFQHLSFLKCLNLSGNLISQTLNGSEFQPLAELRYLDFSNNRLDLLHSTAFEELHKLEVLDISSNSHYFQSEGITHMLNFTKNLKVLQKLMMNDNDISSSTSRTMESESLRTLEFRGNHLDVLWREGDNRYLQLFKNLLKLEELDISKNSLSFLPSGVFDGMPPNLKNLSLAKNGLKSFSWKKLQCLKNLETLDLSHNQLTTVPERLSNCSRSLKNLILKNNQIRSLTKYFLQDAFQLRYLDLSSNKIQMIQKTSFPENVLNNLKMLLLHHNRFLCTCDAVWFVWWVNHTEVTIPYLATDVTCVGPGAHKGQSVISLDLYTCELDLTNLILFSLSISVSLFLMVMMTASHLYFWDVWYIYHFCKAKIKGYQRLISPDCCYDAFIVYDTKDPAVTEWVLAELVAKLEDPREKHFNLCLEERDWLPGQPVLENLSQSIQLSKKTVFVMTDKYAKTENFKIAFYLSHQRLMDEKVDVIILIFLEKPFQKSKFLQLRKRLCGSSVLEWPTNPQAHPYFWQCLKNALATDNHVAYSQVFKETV
Test: TLR7 agonist activity, HEK293 hTLR7 SEAP reporter assay
Type: cell-based
Conditions: for EC50: HEK293 cotransfected with hTLR7 and inducible SEAP reporter gene, 24 h treatment, average ± SD of three independent replicates, n.a. = not active; for plateau / maximum response (efficacy) / loss of activity/potency on TLR7 relative to parent compound 21a: HEK293-hTLR7 SEAP; for plateau / maximum response (efficacy): less than twofold increase in maximum response; for loss of activity/potency on TLR7 relative to parent compound 21a: EC50 compared with 21a
Experimental: TLR7 agonist activities were determined using the HEK293 cell line, which was cotransfected with the hTLR7 gene and an inducible SEAP reporter gene (InvivoGen, San Diego, California, USA) as described previously.[34] Briefly, cells were seeded in 96-well plates (3 × 10^4 cells/well) and incubated at 5% CO2 and 37 °C. After 24 h, the cells were treated with the solutions of the compounds in DMSO. Imiquimod was used as a PC. The cells were incubated again for 24 h under the same conditions. The activity of SEAP in the supernatant of the cells was measured using the QUANTI-Blue reagent (InvivoGen, San Diego, California, USA), according to the manufacturer's protocol. EC50 values were determined using GraphPad Prism 9.2.0. software (San Diego, California, USA) using the nonlinear regression curve fit and four-parameter logistic equation. All experiments were performed in three independent biological replicates. Values are given as averages from the independent measurements with standard deviations calculated.

SMILES | EC50 | plateau / maximum response (efficacy) | EC50 (read-out: EC50) | loss of activity/potency on TLR7 relative to parent compound 21a
Fc1ccc(-c2noc3nc(C(F)(F)F)nc(NC4CC4)c23)cc1 [Compound 21c, N-Cyclopropyl-3-(4-fluorophenyl)-6-(trifluoromethyl)isoxazolo[5,4-d]pyrimidin-4-amine] | inactive | – | – | –
CC1CN(c2nc(C(F)(F)F)nc3onc(-c4ccc(F)cc4)c23)CCO1 (stereo not shown) [Compound 21g, 3-(4-Fluorophenyl)-4-(2-methylmorpholino)-6-(trifluoromethyl)isoxazolo[5,4-d]pyrimidine] | retained the potency | low plateau response | 11 ± 0.1 µM | –
CC(C)CNc1nc(C(F)(F)F)nc2onc(-c3ccccc3)c12 [Compound 14b, N-Isobutyl-3-phenyl-6-(trifluoromethyl)isoxazolo[5,4-d]pyrimidin-4-amine] | inactive | – | – | –
CC1CCCN(c2nc(C(F)(F)F)nc3onc(Cc4ccc(F)c(F)c4)c23)C1 (stereo not shown) [Compound 23a, 3-(3,4-Difluorobenzyl)-4-(3-methylpiperidin-1-yl)-6-(trifluoromethyl)isoxazolo[5,4-d]pyrimidine] | – | – | 19.9 ± 3.1 µM | –
CC1CCN(c2nc(C(F)(F)F)nc3onc(-c4ccc(F)cc4)c23)CC1 [Compound 21f, 3-(4-Fluorophenyl)-4-(4-methylpiperidin-1-yl)-6-(trifluoromethyl)isoxazolo[5,4-d]pyrimidine] | – | low plateau response | 68 ± 8.1 µM | Approximately 10 fold
CC1CCCCN1c1nc(C(F)(F)F)nc2onc(-c3ccc(F)cc3)c12 (stereo not shown) [Compound 21e, 3-(4-Fluorophenyl)-4-(2-methylpiperidin-1-yl)-6-(trifluoromethyl)isoxazolo[5,4-d]pyrimidine] | – | low plateau response | 63.3 ± 9.8 µM | Approximately 10 fold
CC1CCCN(c2nc(C(F)(F)F)nc3onc(-c4cccc([N+](=O)[O-])c4)c23)C1 (stereo not shown) [Compound 19a, 4-(3-Methylpiperidin-1-yl)-3-(3-nitrophenyl)-6-(trifluoromethyl)isoxazolo[5,4-d]pyrimidine] | did not offer any change in activity | – | – | –
CC1CCCN(c2nc(C(F)(F)F)nc3onc(-c4ccc(F)c(Br)c4)c23)C1 (stereo not shown) [Compound 22, 3-(3-Bromo-4-fluorophenyl)-4-(3-methylpiperidin-1-yl)-6-(trifluoromethyl)isoxazolo[5,4-d]pyrimidine] | – | – | 16.4 ± 0.1 µM | –
CC(C)CNc1nc(C(F)(F)F)nc2onc(-c3ccc(F)cc3)c12 [Compound 21b, 3-(4-Fluorophenyl)-N-isobutyl-6-(trifluoromethyl)isoxazolo[5,4-d]pyrimidin-4-amine] | no activity observed | – | – | –
CC1CN(c2nc(C(F)(F)F)nc3onc(-c4ccc(F)cc4)c23)CCN1 (stereo not shown) [Compound 21h, 3-(4-Fluorophenyl)-4-(3-methylpiperazin-1-yl)-6-(trifluoromethyl)isoxazolo[5,4-d]pyrimidine] | lacked activity | – | – | –
CC1(C)CCCN(c2nc(C(F)(F)F)nc3onc(-c4ccc(F)cc4)c23)C1 [Compound 21o, 4-(3,3-Dimethylpiperidin-1-yl)-3-(4-fluorophenyl)-6-(trifluoromethyl)isoxazolo[5,4-d]pyrimidine] | slightly less potent | – | 24.5 ± 1.6 µM | –
COC1CCN(c2nc(C(F)(F)F)nc3onc(-c4ccc(F)cc4)c23)C1 (stereo not shown) [Compound 21t, 3-(4-Fluorophenyl)-4-(3-methoxypyrrolidin-1-yl)-6-(trifluoromethyl)isoxazolo[5,4-d]pyrimidine] | – | – | > 150 µM | –
Fc1ccc(-c2noc3nc(C(F)(F)F)nc(N4CCCC4)c23)cc1 [Compound 21v, 3-(4-Fluorophenyl)-4-(pyrrolidin-1-yl)-6-(trifluoromethyl)isoxazolo[5,4-d]pyrimidine] | – | – | > 150 µM | –
CC1CCCN(c2nc(C(F)(F)F)nc3onc(-c4ccc(C(F)(F)F)cc4)c23)C1 (stereo not shown) [Compound 16a, 4-(3-Methylpiperidin-1-yl)-6-(trifluoromethyl)-3-(4-(trifluoromethyl)phenyl)isoxazolo[5,4-d]pyrimidine] | – | – | > 150 µM | –
CC(C)CNc1nc(C(F)(F)F)nc2onc(-c3cccc([N+](=O)[O-])c3)c12 [Compound 19b, N-Isobutyl-3-(3-nitrophenyl)-6-(trifluoromethyl)isoxazolo[5,4-d]pyrimidin-4-amine] | did not offer any change in activity | – | – | –
Fc1ccc(-c2noc3nc(C(F)(F)F)nc(N4CCCC5(CC5)C4)c23)cc1 [Compound 21p, 3-(4-Fluorophenyl)-4-(5-azaspiro[2.5]octan-5-yl)-6-(trifluoromethyl)isoxazolo[5,4-d]pyrimidine] | slightly less potent | – | 17.5 ± 3 µM | –
CC1CCCN(c2nc(C(F)(F)F)nc3onc(-c4ccccc4)c23)C1 (stereo not shown) [Compound 14a, 4-(3-Methylpiperidin-1-yl)-3-phenyl-6-(trifluoromethyl)isoxazolo[5,4-d]pyrimidine] | inactive | – | – | –
CC(C)CNc1nc(C(F)(F)F)nc2onc(-c3ccc(Cl)cc3)c12 [Compound 15b, 3-(4-Chlorophenyl)-N-isobutyl-6-(trifluoromethyl)isoxazolo[5,4-d]pyrimidin-4-amine] | agonist activity was lost | – | – | –
CC1CCCC(c2nc(C(F)(F)F)nc3onc(-c4ccc(F)cc4)c23)C1 (stereo not shown) [Compound 21y, 3-(4-Fluorophenyl)-4-(3-methylcyclohexyl)-6-(trifluoromethyl)isoxazolo[5,4-d]pyrimidine] | retained its activity | low plateau response | 15.9 ± 0.9 µM | –
CC(C)C1CCCN(c2nc(C(F)(F)F)nc3onc(-c4ccc(F)cc4)c23)C1 (stereo not shown) [Compound 21q, 3-(4-Fluorophenyl)-4-(3-isopropylpiperidin-1-yl)-6-(trifluoromethyl)isoxazolo[5,4-d]pyrimidine] | – | – | 81.1 ± 7 µM | Approximately 10 fold
CC1CCCN(c2nc(C(F)(F)F)nc3onc(-c4ccc(Cl)cc4)c23)C1 (stereo not shown) [Compound 15a, 3-(4-Chlorophenyl)-4-(3-methylpiperidin-1-yl)-6-(trifluoromethyl)isoxazolo[5,4-d]pyrimidine] | – | – | 21.4 ± 2.8 µM | –
CN1CCN(c2nc(C(F)(F)F)nc3onc(-c4ccc(F)cc4)c23)CC1 [Compound 21j, 3-(4-Fluorophenyl)-4-(4-methylpiperazin-1-yl)-6-(trifluoromethyl)isoxazolo[5,4-d]pyrimidine] | lacked activity | – | > 150 µM | –
